Assay results as given in patent US10596110B2, “Residence structures and related methods” (Massachusetts Institute of Technology, priority 2014, dated 2020).

Experiment: Stability of drugs in acidic conditions, in solution or in PCL structures (HPLC)
Assay type: physicochemical
Conditions: IAW, pH=1, 37° C.
Protocol: Stability of drugs in the gastric environment was evaluated using HPLC and LC-MS/MS analysis. Hydrophilic drugs were dissolved in simulated gastric fluid (SGF, 0.2% (w/v) NaCl, 0.83% (v/v) HCL, pH=1) in centrifuge tubes. Hydrophobic drugs were dissolved in IAW (isopropanol 70%, acetonitrile 20%, water 10%) with pH adjusted to 1 using HCL. As a control, drugs were dissolved in the same solvents with pH adjusted to 6.0 (using IM NaOH). After vortexing for 1 min and sonication for 10 min, tubes were placed in a shaking incubator (150 rpm, 37° C.). Samples were collected at defined time points for up to two weeks and analyzed by HPLC and LC-MS/MS to quantify the stability of drugs.
Stability of drugs loaded into PCL based delivery matrices were also studied. Loading of drugs is described below in Examples 16 and 17. Drug loaded structures were kept at acidic conditions (pH=1, 37° C.) and at defined intervals, drug was extracted from the PCL matrix and analyzed by HPLC and/or LC-MS/MS. In order to extract drugs, structures were sonicated in SGF (hydrophilic drugs) or isopropanol (hydrophobic drugs) for 10 min. Fresh drug in SGF or Isopropanol was prepared immediately before analysis as controls.
Ivermectin (IVM) loaded structures, shown in FIG. 16B, were placed in SGF+RH solution (pH=1, 37° C.) for 72 h. Drug was extracted by sonicating the structure in isopropanol for 10 min.

Ivermectin
Stability in acidic conditions (in solution): unstable
